Laboratory results from the supplement of paper PMC13380429.

Experiments:
[1] = tested on: A549-ACE2 infected with SARS-CoV-2; assay: cell count relative to DMSO; higher = less toxic; details: 24 h
Caco-2 [2] = assay: cell viability relative to DMSO; higher = less toxic; details: 72 h
Calu-3 [3] = assay: as above; details: 72 h
HepG2 [4] = assay: as above; details: 72 h
U2OS [5] = assay: as above; details: 72 h
Vero E6 [6] = assay: as above; details: 72 h
[7] = tested on: A549-ACE2 infected with SARS-CoV-2; assay: SARS-CoV-2 infection rate relative to DMSO; higher = more infection; details: 24 h
[8] = tested on: A549-ACE2 infected with SARS-CoV-2; assay: morphology score (similarity to uninfected cells); higher = more like uninfected cells; details: 24 h
Caco-2 [9] = assay: relative viability EC50 (midpoint between 100% and the lowest measured viability); higher = less toxic; details: 72 h
Calu-3 [10] = assay: as above; details: 72 h
HepG2 [11] = assay: as above; details: 72 h
U2OS [12] = assay: as above; details: 72 h
Vero E6 [13] = assay: as above; details: 72 h
Caco-2 [14] = assay: drug sensitivity score (DSS) for viability; higher = more toxic; extreme values may be limits of the assay; details: 72 h
Calu-3 [15] = assay: as above; details: 72 h
HepG2 [16] = assay: as above; details: 72 h
U2OS [17] = assay: as above; details: 72 h
Vero E6 [18] = assay: as above; details: 72 h
A549-ACE2 = assay: drug-induced phospholipidosis relative to tamoxifen; higher = more phospholipidosis

COC(=O)[C@@]12OC[C@]34[C@H]([C@@H](O)[C@@H]1O)[C@@]1(C)CC(=O)C(O)=C(C)[C@@H]1C[C@H]3OC(=O)[C@H](OC(=O)/C=C(\C)C(C)C)[C@@H]24 [bruceantin]
Details	SARS-CoV-2 infection rate, [7] [%]	cell count, [1] [%]	cell viability, Caco-2 [2] [%]	cell viability, Calu-3 [3] [%]	cell viability, HepG2 [4] [%]	cell viability, U2OS [5] [%]	cell viability, Vero E6 [6] [%]	morphology score, [8]
1 nM	–	–	102	96.7	92.8	103	101	–
10 nM	–	–	78.4	102	76.2	58.3	104	–
0.1 µM	12	62	–	–	–	–	–	0.3
100 nM	–	–	37.7	41.4	13.8	9	59.1	–
0.3 µM	16	62	–	–	–	–	–	0.26
1 µM	20	54	–	–	–	–	–	0.24
1000 nM	–	–	25.5	26.5	4.6	1.8	11.4	–
3 µM	12	38	–	–	–	–	–	0.33
10000 nM	–	–	22.4	21	0.9	0.1	2.5	–

Details	drug sensitivity score	relative viability EC50 [µM]
Caco-2 [9]	–	0.0261
Caco-2 [14]	23.9	–
Calu-3 [10]	–	0.0659
Calu-3 [15]	21.3	–
HepG2 [11]	–	0.0238
HepG2 [16]	31	–
U2OS [12]	–	0.0133
U2OS [17]	34.5	–
Vero E6 [13]	–	0.133
Vero E6 [18]	21.5	–

CC[C@H]1CN2CCc3cc(OC)c(OC)cc3[C@@H]2C[C@@H]1C[C@H]1NCCc2cc(OC)c(OC)cc21 [emetine]
Details	SARS-CoV-2 infection rate, [7] [%]	cell count, [1] [%]	cell viability, Calu-3 [3] [%]	cell viability, HepG2 [4] [%]	cell viability, U2OS [5] [%]	cell viability, Vero E6 [6] [%]	morphology score, [8]
1 nM	–	–	105	91.7	101	94.3	–
10 nM	–	–	109	97.8	99.7	103	–
0.1 µM	5	102	–	–	–	–	0.87
100 nM	–	–	99.7	26.1	43.5	54.9	–
0.3 µM	5	91	–	–	–	–	0.7
1 µM	19	69	–	–	–	–	0.44
1000 nM	–	–	35.3	14.5	7	14	–
3 µM	23	59	–	–	–	–	0.43
10000 nM	–	–	30.8	4.5	2	6.9	–

A549-ACE2, 24 h
Details	drug-induced phospholipidosis [%]
0.3 µM	3.73
0.833333 µM	5.74

Details	drug sensitivity score	relative viability EC50 [µM]
Calu-3 [10]	–	0.375
Calu-3 [15]	12	–
HepG2 [11]	–	0.0543
HepG2 [16]	26.2	–
U2OS [12]	–	0.0846
U2OS [17]	24.3	–
Vero E6 [13]	–	0.107
Vero E6 [18]	21.9	–

CC(=O)O[C@@H]1C[C@H]2C(C)(C)C(=O)C=C[C@]2(C)[C@H]2CC[C@@]3(C)[C@H](c4ccoc4)OC(=O)[C@H]4O[C@]43[C@@]21C [gedunin]
Details	SARS-CoV-2 infection rate, [7] [%]	cell count, [1] [%]	cell viability, Caco-2 [2] [%]	cell viability, Calu-3 [3] [%]	cell viability, HepG2 [4] [%]	cell viability, U2OS [5] [%]	cell viability, Vero E6 [6] [%]	morphology score, [8]
1 nM	–	–	97.5	102	105	99.5	101	–
10 nM	–	–	94.6	103	93.8	100	102	–
100 nM	–	–	102	115	103	95.7	102	–
0.3 µM	107	101	–	–	–	–	–	0.03
1000 nM	–	–	103	97.2	94.9	100	94.3	–
3 µM	95	96	–	–	–	–	–	0.18
10 µM	98	108	–	–	–	–	–	0.06
10000 nM	–	–	86.8	102	80.6	95.4	86.6	–
30 µM	85	103	–	–	–	–	–	0.52

drug-induced phospholipidosis [%], A549-ACE2
Details	0.3 µM	0.833333 µM	3.33333 µM	6.66667 µM	10 µM	30 µM
24 h	2.13	1.52	8.1	16.6	23.3	40.1
48 h	7.32	5.06	10.1	18	24.2	37.8
72 h	7.41	2.35	7.47	17	21.7	40.6

Details	drug sensitivity score	relative viability EC50 [µM]
Caco-2 [9]	–	> 10
Caco-2 [14]	0.1	–
Calu-3 [10]	–	> 10
Calu-3 [15]	0	–
HepG2 [11]	–	> 10
HepG2 [16]	1.2	–
U2OS [12]	–	> 10
U2OS [17]	0	–
Vero E6 [13]	–	> 10
Vero E6 [18]	0.5	–

COC[C@H](NC(=O)c1cnc(C)s1)C(=O)N[C@@H](COC)C(=O)N[C@@H](Cc1ccccc1)C(=O)[C@@]1(C)CO1 [oprozomib]
Details	SARS-CoV-2 infection rate, [7] [%]	cell count, [1] [%]	cell viability, Caco-2 [2] [%]	cell viability, Calu-3 [3] [%]	cell viability, HepG2 [4] [%]	cell viability, U2OS [5] [%]	cell viability, Vero E6 [6] [%]	morphology score, [8]
1 nM	–	–	103	92.4	114	103	106	–
10 nM	–	–	94.8	102	99.3	93.8	103	–
0.1 µM	76	87	–	–	–	–	–	0.41
100 nM	–	–	18.9	25.4	27.5	53.9	72.4	–
0.3 µM	95	83	–	–	–	–	–	0.31
1 µM	64	74	–	–	–	–	–	0.24
1000 nM	–	–	8.5	4.2	4.6	0.2	16.3	–
3 µM	33	59	–	–	–	–	–	0.24
10000 nM	–	–	5.5	4.5	-0.1	-0.3	4.2	–

A549-ACE2, 24 h
Details	drug-induced phospholipidosis [%]
0.3 µM	-19.8
0.833333 µM	-14.9
3.33333 µM	-36.6

Details	drug sensitivity score	relative viability EC50 [µM]
Caco-2 [9]	–	0.0409
Caco-2 [14]	27.4	–
Calu-3 [10]	–	0.0607
Calu-3 [15]	25.9	–
HepG2 [11]	–	0.0661
HepG2 [16]	26.4	–
U2OS [12]	–	0.109
U2OS [17]	23.3	–
Vero E6 [13]	–	0.209
Vero E6 [18]	18.7	–

N#CC[C@@H](C1CCCC1)n1cc(-c2ncnc3[nH]ccc23)cn1 [ruxolitinib-(S)]
Details	SARS-CoV-2 infection rate, [7] [%]	cell count, [1] [%]	cell viability, Caco-2 [2] [%]	cell viability, Calu-3 [3] [%]	cell viability, HepG2 [4] [%]	cell viability, U2OS [5] [%]	cell viability, Vero E6 [6] [%]	morphology score, [8]
1 nM	–	–	103	91.4	101	100	98.5	–
10 nM	–	–	99	97.1	96	99.1	101	–
100 nM	–	–	106	99	92.3	99.3	98.2	–
0.3 µM	109	88	–	–	–	–	–	0.15
1000 nM	–	–	93.6	102	103.3	97.5	96.5	–
3 µM	110	100	–	–	–	–	–	0.17
10 µM	112	91	–	–	–	–	–	-0.08
10000 nM	–	–	99.6	112	97.4	95.8	94.05	–
30 µM	119	36	–	–	–	–	–	-0.15

drug-induced phospholipidosis [%], A549-ACE2
Details	0.3 µM	0.833333 µM	3.33333 µM	6.66667 µM	10 µM	30 µM
24 h	-0.6	-1.86	-0.62	3.24	4.69	32.2
48 h	-3.03	-3.25	-1.5	0.99	1.91	–
72 h	-3.98	-4.86	-3.52	-0.549	1.82	–

Details	drug sensitivity score	relative viability EC50 [µM]
Caco-2 [9]	–	> 10
Caco-2 [14]	0	–
Calu-3 [10]	–	> 10
Calu-3 [15]	0	–
HepG2 [11]	–	> 10
HepG2 [16]	0	–
U2OS [12]	–	> 10
U2OS [17]	0	–
Vero E6 [13]	–	> 10
Vero E6 [18]	0	–
